Bounds are passed on as bounds.

Assay [1] relates to SKBR3 (PI3Kα wild type) cells. Kind of assay: CellTiter-Glo 2.0 luminescent cell viability assay, 72 hours, SKBR3 cells. The assay is classed as cell-based. The note with it: Homo sapiens, SK-BR-3, 72 h, SKBR3 (PI3Kα wild type) cells, CellTiter-Glo, approximately 72 hours; read-out: SKBR3 (WT) Viability IC50. The procedure: (§1) The ability of a compound of Formula (I) to decrease the viability of cells was measured using CellTiter-Glo 2.0 (CTG) Luminescent Cell Viability Assay (#G9241) obtained from Promega (Madison, WI).
To prepare assay plates for viability assays, cells were trypsinized, resuspended in fresh media, and viable cells were counted utilizing trypan blue exclusion.
(§2) Assay day 1, cells were dosed using an Echo Liquid Handler (Beckman Coulter) with compounds at a 10 um starting concentration and serially diluted (1:4) for a total of 10 concentrations. Cells were incubated for approximately 72 hours with the compounds (solubilized in DMSO) at 37° C. After 72 hours of treatment, cell plates were equilibrated to room temperature before adding 15 μl of CTG to each well, plates were then covered in aluminum foil to protect from light, incubated at room temperature for 30 minutes on a microtiter plate shaker, and luminescence readings were collected using a CLARIOstar microplate reader (BMG Labtech, Germany). Percent of vehicle control values were plotted as log (inhibitor) vs. response-Variable slope (four parameters) for curve fitting and IC50 values were determined using XLfit.
On the technique in general: ATP-based viability assays read luminescence as a measure of living cells.

Assay [2] concerns T47D (PI3Kα H1047R mutant) cells. Kind of assay: CellTiter-Glo 2.0 luminescent cell viability assay, 72 hours, T47D cells. The assay is classed as cell-based. The note with it: Homo sapiens, T47D, 72 h, T47D (PI3Kα H1047R mutant) cells, CellTiter-Glo, approximately 72 hours; read-out: T47D (H1047R mutant) Viability IC50. The procedure:
This Example illustrates that exemplary compounds of the present invention decrease the viability of cells.
as §1
To prepare assay plates for viability assays, cells were trypsinized, resuspended in fresh media, and viable cells were counted utilizing trypan blue exclusion. T47D, SKBR3, or MKN1 cells were seeded at 1000 cells in 30 μl per well in a solid white flat bottom 384 cell culture plate (Perkin Elmer #6007680) and incubated at 37° C. overnight.
as §2

Regarding `Cc1cc([C@@H](C)Nc2ccccc2C(=O)O)c2nc(N3CC(C#N)C3)c(C#N)c(=O)n2c1` [Example 11-109, (R)-2-((1-(3-cyano-2-(3-cyanoazetidin-1-yl)-7-methyl-4-oxo-4H-pyrido[1,2-a]pyrimidin-9-yl)ethyl)amino)benzoic acid], the IC50 was greater than 10 µM in assay [1] and 1.33 µM in assay [2].

Consider `Cc1cc([C@@H](C)Nc2ccccc2C(=O)O)c2nc(NCC3CC(F)(F)C3)c(C#N)c(=O)n2c1` [Example 11-198, (R)-2-((1-(3-cyano-2-(((3,3-difluorocyclobutyl)methyl)amino)-7-methyl-4-oxo-4H-pyrido[1,2-a]pyrimidin-9-yl)ethyl)amino)benzoic acid], for which the IC50 was greater than 10 µM in assay [1] and 0.232 µM in assay [2].

Take `Cc1cc(C(C)Nc2ccccc2C(=O)O)c2nc(N3CCCC(C)(O)C3)cc(=O)n2c1` (stereo not shown) [Example 11-342, 2-((1-(2-(3-hydroxy-3-methylpiperidin-1-yl)-7-methyl-4-oxo-4H-pyrido[1,2-a]pyrimidin-9-yl)ethyl)amino)benzoic acid]: the IC50 is greater than 10 µM in assay [1] and 4.47 µM in assay [2].

Regarding `Cc1cc(C(C)Nc2ccccc2P(C)(=O)O)c2nc(N3Cc4ccccc4C3)cc(=O)n2c1` (stereo not shown) [Example 11-333, (2-((1-(2-(isoindolin-2-yl)-7-methyl-4-oxo-4H-pyrido[1,2-a]pyrimidin-9-yl)ethyl)amino)phenyl)(methyl) phosphinic acid], the IC50 in assay [1] and in assay [2] was greater than 10 µM throughout.

Take `Cc1cc([C@H](C)Nc2ccc(Cl)nc2C(=O)O)c2nc(N3CCCCC3)c(C)c(=O)n2c1` [Example 11-357, (S)-6-chloro-3-((1-(3,7-dimethyl-4-oxo-2-(piperidin-1-yl)-4H-pyrido[1,2-a]pyrimidin-9-yl)ethyl)amino)picolinic acid]: the IC50 in assay [1] is greater than 10 µM; in assay [2], 0.195 µM.

As for `Cc1cc([C@@H](C)Nc2ccccc2C(=O)O)c2nc(N3CC4CCC3C(O)C4)c(C)c(=O)n2c1` (stereo partly drawn) [Example 10-147, 2-(((1R)-1-(2-(6-hydroxy-2-azabicyclo[2.2.2]octan-2-yl)-3,7-dimethyl-4-oxo-4H-pyrido[1,2-a]pyrimidin-9-yl)ethyl)amino)benzoic acid], the IC50 in assay [1] is greater than 10 µM; in assay [2] it was 0.107 µM.

Turning to `Cc1cc([C@@H](C)Nc2ccccc2C(=O)O)c2nc(N3CCC(N(C)C)CC3)c(C#N)c(=O)n2c1` [Example 11-313, (R)-2-((1-(3-cyano-2-(4-(dimethylamino)piperidin-1-yl)-7-methyl-4-oxo-4H-pyrido[1,2-a]pyrimidin-9-yl)ethyl)amino)benzoic acid], the 50% inhibitory concentration (IC50) in assay [1] and in assay [2] was greater than 10 µM each time.

With `Cc1cc(C(C)Nc2ccccc2C(=O)O)c2nc(N3CCN(c4ccc(CN)cc4)CC3)cc(=O)n2c1` (stereo not shown) [Example 11-257, 2-((1-(2-(4-(4-(aminomethyl)phenyl)piperazin-1-yl)-7-methyl-4-oxo-4H-pyrido[1,2-a]pyrimidin-9-yl)ethyl)amino)benzoic acid], the half-inhibitory concentration (IC50) in assay [1] was greater than 10 µM; in assay [2], 9.52 µM.

As for `Cc1cc([C@H](C)Nc2ccccc2C(=O)O)c2nc([C@H]3CCN(C)C(=O)C3)cc(=O)n2c1` [Example 11-374, 2-(((S)-1-(7-methyl-2-((S)-1-methyl-2-oxopiperidin-4-yl)-4-oxo-4H-pyrido[1,2-a]pyrimidin-9-yl)ethyl)amino)benzoic acid], the IC50 in assay [1] and in assay [2] was greater than 10 µM each time.

As for `Cc1cc([C@@H](C)Nc2ccccc2C(=O)O)c2nc(N3CCN(c4ccc(C#N)c5cc(O)ccc45)CC3)c(C)c(=O)n2c1` [Example 11-254, (R)-2-((1-(2-(4-(4-cyano-6-hydroxynaphthalen-1-yl)piperazin-1-yl)-3,7-dimethyl-4-oxo-4H-pyrido[1,2-a]pyrimidin-9-yl)ethyl)amino)benzoic acid], the IC50 in assay [1] was greater than 10 µM; in assay [2], 0.124 µM.

In the case of `Cc1cc([C@@H](C)Nc2ccccc2C(=O)O)c2nc(N3CC(C(F)F)C3)c(C)c(=O)n2c1` [Example 11-105, (R)-2-((1-(2-(3-(difluoromethyl)azetidin-1-yl)-3,7-dimethyl-4-oxo-4H-pyrido[1,2-a]pyrimidin-9-yl)ethyl)amino)benzoic acid], the values for the IC50 in assay [1] and in assay [2] were greater than 10 µM and 0.255 µM, respectively.

As to `Cc1cc([C@@H](C)Nc2ccccc2C(=O)O)c2nc(N3CCC[C@@H](C(F)(F)F)C3)c(C)c(=O)n2c1` [Example 11-211, 2-(((R)-1-(3,7-dimethyl-4-oxo-2-((R)-3-(trifluoromethyl)piperidin-1-yl)-4H-pyrido[1,2-a]pyrimidin-9-yl)ethyl)amino)benzoic acid], the IC50 in assay [1] was greater than 10 µM; in assay [2], 0.52 µM.

In the case of `Cc1cc([C@@H](C)Nc2ccccc2C(=O)O)c2nc(N3CCN(c4cnn(C)c4)CC3)c(C)c(=O)n2c1` [Example 11-265, (R)-2-((1-(3,7-dimethyl-2-(4-(1-methyl-1H-pyrazol-4-yl)piperazin-1-yl)-4-oxo-4H-pyrido[1,2-a]pyrimidin-9-yl)ethyl)amino)benzoic acid], the IC50 in assay [1] was greater than 10 µM; in assay [2], 0.248 µM.

Consider `Cc1cc(C(C)Nc2ccccc2C(=O)O)c2nc(-c3ccn(C)n3)cc(=O)n2c1` (stereo not shown) [Example 11-404, 2-((1-(7-methyl-2-(1-methyl-1H-pyrazol-3-yl)-4-oxo-4H-pyrido[1,2-a]pyrimidin-9-yl)ethyl)amino)benzoic acid], for which the concentration for half-maximal inhibition (IC50) in assay [1] and in assay [2] was greater than 10 µM in each case.

For `Cc1cc([C@@H](C)Nc2ccccc2C(=O)O)c2nc(N3CCOCC3)c(C#N)c(=O)n2c1` [Example 11-318, (R)-2-((1-(3-cyano-7-methyl-2-morpholino-4-oxo-4H-pyrido[1,2-a]pyrimidin-9-yl)ethyl)amino)benzoic acid], the 50% inhibitory concentration (IC50) in assay [1] is greater than 10 µM; in assay [2] it was 0.274 µM.

On to `Cc1cc([C@@H](C)Nc2ccccc2C(=O)O)c2nc(O[C@H]3CCOC3)c(C#N)c(=O)n2c1` [Example 11-248, 2-(((R)-1-(3-cyano-7-methyl-4-oxo-2-(((S)-tetrahydrofuran-3-yl)oxy)-4H-pyrido[1,2-a]pyrimidin-9-yl)ethyl)amino)benzoic acid], for which the results for the IC50 in assay [1] and in assay [2] were 4.31 µM and 2.2 µM, respectively.

As for `Cc1cc([C@@H](C)Nc2scnc2C(=O)O)c2nc(N3CCC(F)(F)CC3)c(C#N)c(=O)n2c1` [Example 11-292, (R)-5-((1-(3-cyano-2-(4,4-difluoropiperidin-1-yl)-7-methyl-4-oxo-4H-pyrido[1,2-a]pyrimidin-9-yl)ethyl)amino)thiazole-4-carboxylic acid], the IC50 is greater than 10 µM in assay [1] and 3.95 µM in assay [2].

Turning to `Cc1cc([C@@H](C)Nc2ccc(C)nc2C(=O)O)c2nc(N3CCC(F)(F)CC3)c(C#N)c(=O)n2c1` [Example 10-17, (R)-3-((1-(3-cyano-2-(4,4-difluoropiperidin-1-yl)-7-methyl-4-oxo-4H-pyrido[1,2-a]pyrimidin-9-yl)ethyl)amino)-6-methylpicolinic acid], the IC50 in assay [1] is greater than 10 µM; in assay [2], 0.0384 µM.

Take `Cc1cc(C(C)NC2CC(C(=O)O)C2)c2nc(N3CCCCC3)cc(=O)n2c1` (stereo not shown) [Example 11-385, 3-((1-(7-methyl-4-oxo-2-(piperidin-1-yl)-4H-pyrido[1,2-a]pyrimidin-9-yl)ethyl)amino)cyclobutane-1-carboxylic acid]: the half-maximal inhibitory concentration (IC50) in assay [1] and in assay [2] was greater than 10 µM in each case.

As for `Cc1cc(C(C)Nc2ccccc2C(=O)O)c2nc(-c3cnn(C)c3)cc(=O)n2c1` (stereo not shown) [Example 11-405, 2-((1-(7-methyl-2-(1-methyl-1H-pyrazol-4-yl)-4-oxo-4H-pyrido[1,2-a]pyrimidin-9-yl)ethyl)amino)benzoic acid], the half-inhibitory concentration (IC50) in assay [1] was greater than 10 µM; in assay [2], 8.38 µM.

With `Cc1cnn(C2CCN(c3nc4c([C@@H](C)Nc5ccccc5C(=O)O)cc(C)cn4c(=O)c3C)CC2)c1` [Example 10-16, (R)-2-((1-(3,7-dimethyl-2-(4-(4-methyl-1H-pyrazol-1-yl)piperidin-1-yl)-4-oxo-4H-pyrido[1,2-a]pyrimidin-9-yl)ethyl)amino)benzoic acid], the half-inhibitory concentration (IC50) is greater than 10 µM in assay [1] and 0.0373 µM in assay [2].

With `Cc1cc([C@@H](C)Nc2ccccc2C(=O)O)c2nc(N3CCCC(F)(F)C3)c(C#N)c(=O)n2c1` [Example 11-297, (R)-2-((1-(3-cyano-2-(3,3-difluoropiperidin-1-yl)-7-methyl-4-oxo-4H-pyrido[1,2-a]pyrimidin-9-yl)ethyl)amino)benzoic acid], the IC50 in assay [1] is greater than 10 µM; in assay [2], 0.195 µM.

In the case of `Cc1cc([C@@H](C)Nc2ccccc2C(=O)O)c2nc(N3C[C@@H](C)C(F)(F)C3)c(C)c(=O)n2c1` [Example 11-120, 2-(((R)-1-(2-((R)-3,3-difluoro-4-methylpyrrolidin-1-yl)-3,7-dimethyl-4-oxo-4H-pyrido[1,2-a]pyrimidin-9-yl)ethyl)amino)benzoic acid], the concentration for half-maximal inhibition (IC50) is greater than 10 µM in assay [1] and 0.168 µM in assay [2].

A word on the IC50: it is the concentration needed to halve the response being measured.

The values above are taken from patent US20260078120A1, “SUBSTITUTED PYRIDOPYRIMIDINONES” (MIRATI THERAPEUTICS, INC., priority 2022, published 2026).
